Experimental data published in patent publication US20090068243A1, “Novel formulations for delivery of antiviral peptide therapeutics” (priority 2007, published 2009).

How the values were obtained:
[1] = Stability in aqueous solution (PBS), peptide remaining in solution by HPLC; type: physicochemical; details: 10 mg/ml in PBS, about pH 7.3 to 7.5, 37° C., time point of 1 week
HIV-IIIB = details: 50% reduction in infectious virus titer
From the text: Assessment of biological properties included measurement of antiviral activity against HIV-1 strains. […] These assays score for reduction of infectious virus titer employing the indicator cell lines MAGI or the CCR5 expressing derivative cMAGI. Both cell lines exploit the ability of HIV-1 tat to transactivate the expression of a β-galactosidase reporter gene driven by the HIV-LTR. The β-gal reporter has been modified to localize in the nucleus and can be detected with the X-gal substrate as intense nuclear staining within a few days of infection. The number of stained nuclei can thus be interpreted as equal to the number of infectious virions in the challenge inoculum if there is only one round of infection prior to staining. […] In the MAGI and cMAGI assays, a 50% reduction in infectious titer (Vn/Vo=0.5) is significant, and provides the primary cutoff value for assessing antiviral activity (“IC50” is defined as the concentration of active ingredient resulting in a 50% reduction in infectious virus titer). […] The number of infected cells for each control and peptide dilution was determined with the CCD-imager, and then the IC50 was calculated (expressed in μg/ml).

[2] = Intravenous pharmacokinetics in cynomolgus monkeys; type: in vivo, cynomolgus monkeys (Macaca fasicularis)
Procedure: For determining pharmacokinetic properties, an HIV fusion inhibitor peptide or a base sequence from which an HIV fusion inhibitor peptide is derived was dosed intravenously in cynomolgus monkeys (Macaca fasicularis) (other animal models may be used for determining pharmacokinetic properties, as known in the art). At various times post-dose, blood samples were drawn and plasma isolated by centrifugation. Plasma samples were stored frozen until analysis by LC-MS (liquid chromatography/mass spectrometry) in the electrospray, positive-ion mode. An HIV fusion inhibitor or base sequence was eluted from a C18 or C8 HPLC column with a gradient of acetonitrile in a buffer of 10 mM ammonium acetate, pH 6.8. At the time of analysis, plasma samples were deproteinated with either two or three volumes of acetonitrile containing 0.5% formic acid. Duplicate calibration standards in cynomolgus plasma samples were prepared at the same time as the samples and analyzed before and after the samples containing either HIV fusion inhibitor peptide or base sequence. Pharmacokinetic properties were calculated from the plasma concentration-time data using either mono-exponential or bi-exponential mathematical models. Models were derived by non-linear least squares optimization. A 1/C^2 weighting of concentrations was used. The following equations were used to calculate area-under the plasma concentration vs. time curve (AUC), total body clearance (Cl), and terminal elimination half-life (t ½).
Where A and B are intercepts and a and b are the rate constants of the exponential equations describing the distribution and elimination phases, respectively. When mono-exponential models were used, the “A” and “a” properties were eliminated.
Cl=Dose/AUC (expressed in L/K/hr)
t½=0.6903/b (expressed in hr)

584.000098 = tested on: 584.000098
From the text: (§1) Assessment of biological properties included measurement of antiviral activity against HIV-1 strains. […] These assays score for reduction of infectious virus titer employing the indicator cell lines MAGI or the CCR5 expressing derivative cMAGI. Both cell lines exploit the ability of HIV-1 tat to transactivate the expression of a β-galactosidase reporter gene driven by the HIV-LTR. The β-gal reporter has been modified to localize in the nucleus and can be detected with the X-gal substrate as intense nuclear staining within a few days of infection. The number of stained nuclei can thus be interpreted as equal to the number of infectious virions in the challenge inoculum if there is only one round of infection prior to staining. […] In the MAGI and cMAGI assays, a 50% reduction in infectious titer (Vn/Vo=0.5) is significant, and provides the primary cutoff value for assessing antiviral activity (“IC50” is defined as the concentration of active ingredient resulting in a 50% reduction in infectious virus titer). […] The peptide (in the respective dilution) was added to the cMAGI or MAGI cells, followed by the virus inocula; and 24 hours later, an inhibitor of infection and cell-cell fusion (e.g., SEQ ID NO:2 (enfuvirtide)) was added to prevent secondary rounds of HIV infection and cell-cell virus spread. The cells were cultured for 2 more days, and then fixed and stained with the X-gal substrate to detect HIV-infected cells. The number of infected cells for each control and peptide dilution was determined with the CCD-imager, and then the IC50 was calculated (expressed in μg/ml).
(§2) In particular, in vitro resistance comparison studies were performed between the novel SEQ ID NO:9 compound of interest and established antiviral agent SEQ ID NO:2, described in detail as follows: MT2 cells were infected with virus isolates (IIIB, 030, 060 and 098) and cultured in increasing concentrations of SEQ ID NO:2 (enfuvirtide) or SEQ ID NO:9 to select for resistance. The initial peptide concentration was approximately 2 times the IC50 of each peptide against the corresponding wild type isolate. Peptide concentrations were maintained by adding fresh peptide every 1-3 days. Cultures were monitored for cytopathic effect (CPE) using standard techniques and when maximal CPE was achieved, a small aliquot of virus was used for subsequent rounds of infection. Peptide concentrations were increased 2 to 4-fold depending on the length of time in culture when compared to the growth rate of wild type virus. During the course of selection, peptide-free virus stocks were also collected. Peptide-free virus stocks were characterized for gp41 genotypic changes by dideoxy sequencing chemistries and phenotypic susceptibility was determined using a cMAGI infectivity assay.

[3] = tested on: virus isolates (IIIB, 030, 060 and 098)
From the text: as §1, §2

IIIB = details: starting virus isolate IIIB
From the text: as §1, §2

584.000060 = tested on: 584.000060
From the text: as §1, §2

584.000030 = tested on: 584.000030
From the text: as §1, §2

[4] = Helicity by circular dichroism (CD); type: physicochemical; details: usually percent helicity at 10 μM, 25° C.
Procedure: (§3) Assessment of biophysical parameters included measurement of helicity and thermal stability. Helicity was assessed by circular dichroism (“CD”) as follows. Briefly, CD spectra were obtained using a spectrometer equipped with a thermoelectric temperature controller. The spectra was obtained at 25° C. with 0.5 nanometer (nm) steps from 200 to 260 nm, with a 1.5 nm bandwith, and a typical averaging time of 4 seconds/step. After the cell/buffer blank was subtracted, spectra were smoothed using a third-order least-squares polynomial fit with a conservative window size to give random residuals. Raw ellipticity values were converted to mean residue ellipticity using standard methods, and plotted was the wavelength (from 200 to 260 nm) versus [θ]×10−3 (degrees cm^2/dmol). Percent helicity values were then calculated using standard methods (usually expressed as percent helicity at 10 μM, 25° C.). Assessment of thermal stability was performed by monitoring the change in CD signal at 222 nm as temperature was raised in 2° C. steps, with 1 minute equilibration times. The stability for each sample (e.g., HIV fusion inhibitor peptide), as represented by the Tm value, is the temperature corresponding to the maximum value of the first derivative of the thermal transition.

[5] = Thermal stability (Tm) by CD signal at 222 nm; type: physicochemical; details: CD at 222 nm, maximum of first derivative of thermal transition
Procedure: as §3

Ac-TTWEAWDRAIAEYAARIEALLRALQEQQEKNEAALREL-NH2 [SEQ ID NO:9, TTWEAWDRAIAEYAARIEALLRALQEQQEKNEAALREL]
peptide remaining detectable in solution [1]: ≥ 90% | Antiviral Activity (μg/ml) HIV-IIIB IC50 (HIV-IIIB): <0.10 µg/mL | biological half-life relative to base sequence, in words ([2]; comment on Table 2): increased biological half-life | clearance ([2]; cynomolgus monkey, plasma, iv, dosed intravenously): < 0.333 mL/min/kg | half-life ([2]; cynomolgus monkey, plasma, iv, dosed intravenously, read-out: Half-life (t ½; hr) (converted)): 720 min | Fold Change in IC50 (584.000098; starting virus isolate 584.000098): 14 | Ending IC50 (584.000098; starting virus isolate 584.000098, after selection): 521 ng/mL | Starting IC50 (584.000098; starting virus isolate 584.000098, before selection): 37 ng/mL | Fold Change in IC50 ([3]; Geometric Mean of four isolates): 24 | Ending IC50 ([3]; Geometric Mean of four isolates, after selection): 429 ng/mL | Starting IC50 ([3]; Geometric Mean of four isolates, before selection): 18 ng/mL | barrier to development of resistance in vitro, in words ([3]; compared to SEQ ID NO:2): higher barrier to development of resistance in vitro | Fold Change in IC50 (IIIB): 231 | Ending IC50 (IIIB; after selection): 2768 ng/mL | Starting IC50 (IIIB; before selection): 12 ng/mL | Fold Change in IC50 (584.000060; starting virus isolate 584.000060): 26 | Ending IC50 (584.000060; starting virus isolate 584.000060, after selection): 208 ng/mL | Starting IC50 (584.000060; starting virus isolate 584.000060, before selection): 8 ng/mL | Fold Change in IC50 (584.000030; starting virus isolate 584.000030): 4 | Ending IC50 (584.000030; starting virus isolate 584.000030, after selection): 113 ng/mL | Starting IC50 (584.000030; starting virus isolate 584.000030, before selection): 28 ng/mL | Helicity (%) [4]: 61% | Tm (° C.) [5]: 62 °C
